Measurements from the supplement of paper PMC10627819.

What was measured:
Experiment in all cases: Bliss interaction score (quartile over a dose matrix) (fitness difference); higher = more antagonism (negative = synergy)
[1] = tested on: S. aureus DSM 20231
In short: (§1)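 Fitness was derived from optical density at entry into stationary phase, divided by the robust mean of the no-drug wells on the same plate. That reading was taken as OD595, and the ratio was capped at 1. Single-drug fitness was inferred from the combination data. The Bliss score, observed fitness minus the expected product of single-drug fitness, was summarised as quartiles over technical, biological and donor/recipient replicates.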

[2] = tested on: S. aureus Newman
In short: as §1

[3] = tested on: B. subtilis 168
In short: as §1

[4] = tested on: S. pneumoniae D39V
In short: as §1
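Note: first quartile when negative (synergy) and third quartile when positive (antagonism).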

Structure (SMILES)	Bliss interaction score [1]	Bliss interaction score [2]	Bliss interaction score [3]	Bliss interaction score [4]	further results
CO[C@@]12[C@H](COC(N)=O)C3=C(C(=O)C(C)=C(N)C3=O)N1C[C@@H]1N[C@@H]12 [MitomycinC] + COc1ccc(C[C@H](N)C(=O)N[C@H]2[C@@H](O)[C@H](n3cnc4c(N(C)C)ncnc43)O[C@@H]2CO)cc1 [Puromycin]	0.0528	0.0521	-0.0693	0.0762	–
CO[C@@]12[C@H](COC(N)=O)C3=C(C(=O)C(C)=C(N)C3=O)N1C[C@@H]1N[C@@H]12 [MitomycinC] + CN[C@@H]1[C@H](O)[C@H](NC)[C@H]2O[C@@]3(O)C(=O)C[C@@H](C)O[C@H]3O[C@@H]2[C@H]1O [Spectinomycin]	0.0772	-0.0974	0.0749	-0.06	–
CO[C@@H]1[C@@H](OC(N)=O)[C@@H](O)[C@H](Oc2ccc3c(O)c(NC(=O)c4ccc(O)c(CC=C(C)C)c4)c(=O)oc3c2C)OC1(C)C [Novobiocin] + CCCCCCCCCC(=O)N[C@@H]1[C@H]([C@@H]([C@H](O[C@H]1OC2=C3C=C4C=C2OC5=C(C=C(C=C5)[C@H]([C@H]6C(=O)N[C@@H](C7=C(C(=CC(=C7)O)OC8[C@H]([C@H]([C@@H]([C@H](O8)CO)O)O)O)C9=C(C=CC(=C9)[C@H](C(=O)N6)NC(=O)[C@@H]4NC(=O)[C@@H]1C2=CC(=CC(=C2)OC2=C(C=CC(=C2)[C@H](C(=O)N[C@H](CC2=CC(=C(O3)C=C2)Cl)C(=O)N1)N)O)O)O)C(=O)O)O[C@H]1[C@@H]([C@H]([C@@H]([C@H](O1)CO)O)O)NC(=O)C)Cl)CO)O)O [Teicoplanin]	–	–	–	–	Bliss interaction score ([1]; main component drawn): -0.102; Bliss interaction score ([2]; main component drawn): -0.234; Bliss interaction score ([3]; main component drawn): 0.127; Bliss interaction score ([4]; main component drawn): 0.0574
CN[C@@H]1[C@H](O)[C@H](NC)[C@H]2O[C@@]3(O)C(=O)C[C@@H](C)O[C@H]3O[C@@H]2[C@H]1O [Spectinomycin] + Cc1cc(NS(=O)(=O)c2ccc(N)cc2)no1 [Sulfamethoxazol]	-0.0866	0.0687	-0.0406	-0.0374	–
CC[C@H]1OC(=O)[C@H](C)[C@@H](O[C@H]2C[C@@](C)(OC)[C@@H](O)[C@H](C)O2)[C@H](C)[C@@H](O[C@@H]2O[C@H](C)C[C@H](N(C)C)[C@H]2O)[C@](C)(O)C[C@@H](C)C(=O)[C@H](C)[C@@H](O)[C@]1(C)O [Erythromycin] + CC1(C)S[C@@H]2[C@H](NC(=O)Cc3ccccc3)C(=O)N2[C@H]1C(=O)O [PenicillinG]	0.0265	-0.0654	0.0463	-0.0381	–
CO[C@@]12[C@H](COC(N)=O)C3=C(C(=O)C(C)=C(N)C3=O)N1C[C@@H]1N[C@@H]12 [MitomycinC] + C/C(=C\C(=O)OCCCCCCCCC(=O)O)C[C@@H]1OC[C@H](C[C@@H]2O[C@H]2[C@@H](C)[C@H](C)O)[C@@H](O)[C@H]1O [Pseudomonic acid]	-0.011	-0.0169	-0.0185	-0.0895	–
CC[C@H]1OC(=O)[C@H](C)[C@@H](O[C@H]2C[C@@](C)(OC)[C@@H](O)[C@H](C)O2)[C@H](C)[C@@H](O[C@@H]2O[C@H](C)C[C@H](N(C)C)[C@H]2O)[C@](C)(O)C[C@@H](C)C(=O)[C@H](C)[C@@H](O)[C@]1(C)O [Erythromycin] + CN(C)C(=O)C(CCN1CCC(O)(c2ccc(Cl)cc2)CC1)(c1ccccc1)c1ccccc1 [Loperamide]	0.0888	-0.039	0.0381	0.116	–
CO[C@@]12[C@H](COC(N)=O)C3=C(C(=O)C(C)=C(N)C3=O)N1C[C@@H]1N[C@@H]12 [MitomycinC] + CC1(C)S[C@@H]2[C@H](NC(=O)Cc3ccccc3)C(=O)N2[C@H]1C(=O)O [PenicillinG]	-0.0709	-0.0455	-0.0602	0.103	–
CO[C@@]12[C@H](COC(N)=O)C3=C(C(=O)C(C)=C(N)C3=O)N1C[C@@H]1N[C@@H]12 [MitomycinC] + C[n+]1ccc(-c2cc[n+](C)cc2)cc1 [Paraquat]	-0.0406	0.04	0.0434	-0.0446	–
CC(=O)NC[C@H]1CN(c2ccc(N3CCOCC3)c(F)c2)C(=O)O1 [Linezolid] + Oc1cc(Cl)ccc1Oc1ccc(Cl)cc1Cl [Triclosan]	-0.0777	0.026	0.0335	-0.0928	–
CC[C@H]1OC(=O)[C@H](C)[C@@H](O[C@H]2C[C@@](C)(OC)[C@@H](O)[C@H](C)O2)[C@H](C)[C@@H](O[C@@H]2O[C@H](C)C[C@H](N(C)C)[C@H]2O)[C@](C)(O)C[C@@H](C)C(=O)[C@H](C)[C@@H](O)[C@]1(C)O [Erythromycin] + CN(C)c1cc(NC(=O)CNC(C)(C)C)c(O)c2c1C[C@H]1C[C@H]3[C@H](N(C)C)C(O)=C(C(N)=O)C(=O)[C@@]3(O)C(O)=C1C2=O [Tigecycline]	-0.0257	-0.0253	-0.0505	-0.0975	–
CN[C@H](CC(C)C)C(=O)N[C@H]1C(=O)N[C@@H](CC(N)=O)C(=O)N[C@H]2C(=O)N[C@H]3C(=O)N[C@H](C(=O)N[C@H](C(=O)O)c4cc(O)cc(O)c4-c4cc3ccc4O)[C@H](O[C@H]3C[C@](C)(N)[C@@H](O)[C@H](C)O3)c3ccc(c(Cl)c3)Oc3cc2cc(c3O[C@@H]2O[C@H](CO)[C@@H](O)[C@H](O)[C@H]2O[C@H]2C[C@](C)(NCc3ccc(-c4ccc(Cl)cc4)cc3)[C@@H](O)[C@H](C)O2)Oc2ccc(cc2Cl)[C@H]1O [Oritavancin] + CC1=C\[C@@H](O)CC(=O)Cc2nc(co2)C(=O)N2CCC=C2C(=O)O[C@H](C(C)C)[C@H](C)/C=C/C(=O)NC\C=C\1 [Virginiamycin M1]	-0.0348	-0.0713	-0.0178	0.0739	–
CO[C@@]12[C@H](COC(N)=O)C3=C(C(=O)C(C)=C(N)C3=O)N1C[C@@H]1N[C@@H]12 [MitomycinC] + COc1ccc2[nH]c([S+]([O-])Cc3ncc(C)c(OC)c3C)nc2c1 [Omeprazole]	0.169	–	–	–	–
CC(C)(O)c1ccccc1CC[C@@H](SCC1(CC(=O)O)CC1)c1cccc(/C=C/c2ccc3ccc(Cl)cc3n2)c1 [Montelukast] + CN[C@@H]1[C@H](O[C@H]2[C@H](O[C@H]3[C@H](O)[C@@H](O)[C@H](N=C(N)N)[C@@H](O)[C@@H]3N=C(N)N)O[C@@H](C)[C@]2(O)C=O)O[C@@H](CO)[C@H](O)[C@H]1O [Streptomycin]	-0.394	–	–	–	–
CN[C@@H]1[C@H](O[C@H]2[C@H](O[C@H]3[C@H](O)[C@@H](O)[C@H](N=C(N)N)[C@@H](O)[C@@H]3N=C(N)N)O[C@@H](C)[C@]2(O)C=O)O[C@@H](CO)[C@H](O)[C@H]1O [Streptomycin] + CC/C(=C(\c1ccccc1)c1ccc(OCCN(C)C)cc1)c1ccccc1 [Tamoxifene]	0.166	–	–	–	–
CC(C)Cc1ccc(C(C)C(=O)O)cc1 (stereo not drawn) [Ibuprofen] + C/C(=C\C(=O)OCCCCCCCCC(=O)O)C[C@@H]1OC[C@H](C[C@@H]2O[C@H]2[C@@H](C)[C@H](C)O)[C@@H](O)[C@H]1O [Pseudomonic acid]	0.169	–	–	–	–
CO[C@@]12[C@H](COC(N)=O)C3=C(C(=O)C(C)=C(N)C3=O)N1C[C@@H]1N[C@@H]12 [MitomycinC] + CCCc1nc2c(C)cc(-c3nc4ccccc4n3C)cc2n1Cc1ccc(-c2ccccc2C(=O)O)cc1 [Telmisartan]	-0.162	–	–	–	–
CO[C@H]1/C=C/O[C@@]2(C)Oc3c(C)c(O)c4c(O)c(c(/C=N/N5CCN(C)CC5)c(O)c4c3C2=O)NC(=O)/C(C)=C\C=C\[C@H](C)[C@H](O)[C@@H](C)[C@@H](O)[C@@H](C)[C@H](OC(C)=O)[C@@H]1C [Rifampicin] + CCCSc1nc(N[C@@H]2C[C@H]2c2ccc(F)c(F)c2)c2nnn([C@@H]3C[C@H](OCCO)[C@@H](O)[C@H]3O)c2n1 [Ticagrelor]	0.245	–	–	–	–
CC(C)(O)c1ccccc1CC[C@@H](SCC1(CC(=O)O)CC1)c1cccc(/C=C/c2ccc3ccc(Cl)cc3n2)c1 [Montelukast] + COc1cc(Cc2cnc(N)nc2N)cc(OC)c1OC [Trimethoprim]	-0.299	–	–	–	–
CN(Cc1cnc2nc(N)nc(N)c2n1)c1ccc(C(=O)N[C@@H](CCC(=O)O)C(=O)O)cc1 [Methotrexate] + COc1cc(Cc2cnc(N)nc2N)cc(OC)c1OC [Trimethoprim]	-0.242	–	–	–	–
O=c1[nH]cc(F)c(=O)[nH]1 [Fluorouracil] + CN[C@@H]1[C@H](O[C@H]2[C@H](O[C@H]3[C@H](O)[C@@H](O)[C@H](N=C(N)N)[C@@H](O)[C@@H]3N=C(N)N)O[C@@H](C)[C@]2(O)C=O)O[C@@H](CO)[C@H](O)[C@H]1O [Streptomycin]	-0.184	–	–	–	–
CO[C@@]12[C@H](COC(N)=O)C3=C(C(=O)C(C)=C(N)C3=O)N1C[C@@H]1N[C@@H]12 [MitomycinC] + CCCSc1nc(N[C@@H]2C[C@H]2c2ccc(F)c(F)c2)c2nnn([C@@H]3C[C@H](OCCO)[C@@H](O)[C@H]3O)c2n1 [Ticagrelor]	-0.392	–	–	–	–
CC[C@H](C)[C@H](N)C1=N[C@H](C(=O)N[C@@H](CC(C)C)C(=O)N[C@H](CCC(=O)O)C(=O)N[C@H](C(=O)N[C@H]2CCCCNC(=O)[C@H](CC(N)=O)NC(=O)[C@@H](CC(=O)O)NC(=O)[C@H](Cc3cnc[nH]3)NC(=O)[C@@H](Cc3ccccc3)NC(=O)[C@H]([C@@H](C)CC)NC(=O)[C@@H](CCCN)NC2=O)[C@@H](C)CC)CS1 [Bacitracin] + C[C@H]1C[C@@H]2[C@H]([C@@H](O)C[C@@]3(C)[C@H]2CC[C@]3(O)C(=O)CO)[C@@]2(C)C=CC(=O)C=C12 [Methylprednisolone]	–	–	–	–	Bliss interaction score ([1]; main component drawn): -0.282
CC[C@H](c1ccc(O)cc1)[C@@H](CC)c1ccc(O)cc1 [Hexestrol] + CO[C@@]12[C@H](COC(N)=O)C3=C(C(=O)C(C)=C(N)C3=O)N1C[C@@H]1N[C@@H]12 [MitomycinC]	-0.248	–	–	–	–
CN[C@@H]1[C@H](O[C@H]2[C@H](O[C@H]3[C@H](O)[C@@H](O)[C@H](N=C(N)N)[C@@H](O)[C@@H]3N=C(N)N)O[C@@H](C)[C@]2(O)C=O)O[C@@H](CO)[C@H](O)[C@H]1O [Streptomycin] + CCCc1nc2c(C)cc(-c3nc4ccccc4n3C)cc2n1Cc1ccc(-c2ccccc2C(=O)O)cc1 [Telmisartan]	0.123	–	–	–	–
CC(C)(O)c1ccccc1CC[C@@H](SCC1(CC(=O)O)CC1)c1cccc(/C=C/c2ccc3ccc(Cl)cc3n2)c1 [Montelukast] + CN[C@H](CC(C)C)C(=O)N[C@H]1C(=O)N[C@@H](CC(N)=O)C(=O)N[C@H]2C(=O)N[C@H]3C(=O)N[C@H](C(=O)N[C@H](C(=O)O)c4cc(O)cc(O)c4-c4cc3ccc4O)[C@H](O[C@H]3C[C@](C)(N)[C@@H](O)[C@H](C)O3)c3ccc(c(Cl)c3)Oc3cc2cc(c3O[C@@H]2O[C@H](CO)[C@@H](O)[C@H](O)[C@H]2O[C@H]2C[C@](C)(NCc3ccc(-c4ccc(Cl)cc4)cc3)[C@@H](O)[C@H](C)O2)Oc2ccc(cc2Cl)[C@H]1O [Oritavancin]	0.247	–	–	–	–
CC(C)(O)c1ccccc1CC[C@@H](SCC1(CC(=O)O)CC1)c1cccc(/C=C/c2ccc3ccc(Cl)cc3n2)c1 [Montelukast] + Cn1nnc(-c2ccc(-c3ccc(N4C[C@H](CO)OC4=O)cc3F)cn2)n1 [Tedizolid]	-0.384	–	–	–	–
